# According to patent publication US8815834B2, “Use of dendrimers to stimulate cell growth” (Centre National de la Recherche Scientifique, priority 2004, dated 2014):
# Test system: human NK cells
# Experiment: Culture of PBMC with dendrimer and IL2: amplification and phenotype of NK cells
# Details: in particular at a concentration of 20 μM; FIG. 4B
# Description: Peripheral blood mononuclear cells (PBMC) obtained from a healthy adult human donor by centrifugation over a density gradient (Ficoll-Hypaque, Amersham Pharmacia Biotech, Upsalla, SWEDEN) are cultured in sterile cell culture flasks at a concentration of 1.5 million cells per ml of culture medium of the RPMI 1640 type, 25 mM Hepes/Ultraglutamine 1 (Cambrex Bio Science, Verviers, BELGIUM) supplemented with: • i) 1 mM sodium pyruvate (Invitrogen Corporation, Paisley, UNITED KINGDOM) • ii) 100 μg/ml of streptomycin and 100 U/ml of penicillin (Cambrex Bio Science, Verviers, BELGIUM); • iii) 10% by volume of foetal calf serum (Invitrogen Corporation, Paisley, UNITED KINGDOM) decomplemented for 30 minutes at 56° C. (FCS); • iv) 20 μM of GC1 dendrimer solubilized at a concentration of 2 mM in sterile non-pyrogenic PBS; • v) 200 U/ml of human recombinant IL2 (Sanofi-Synthelabo, Paris, FRANCE) is added to the culture medium thus produced. […]
# The PBMCs obtained from a healthy adult human donor are cultured for 15 days with GC1 then counted by total counting of the living cells (Ntot). […]
# The NK cells obtained starting with PBMCs from healthy donors cultured under the conditions described previously are counted, at the start of the experiment then at the end of 3.5 weeks of culture. […]
smiles,measurement,value
O=P(O)(O)CN(CCc1ccc(O)cc1)CP(=O)(O)O [phenol-azabisphosphonic monomer derived from tyramine],Immunostimulant properties on the in vitro amplification of human NK cells,inactive
